The structures appear in SMILES notation.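 48-hour exposure; five concentrations; linearly interpolated endpoints. At the GI50, growth is halved. TGI: concentration producing complete growth inhibition.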

Among the test systems are RPMI-8226 leukemia; MCF7 breast; CAKI-1 renal; NCI-H226 lung; DU-145 prostate; SF-539 CNS; K-562 leukemia; SK-MEL-5 melanoma; PC-3 prostate; DLD-1 colon; DMS 273 small cell lung.
Experiment in all cases: growth of human tumour cells (NCI), 48 h

On to `CC(C)NC(=O)OCc1c(COC(=O)NC(C)C)c(-c2cc[n+](COC(=O)C3CCCCC3)cc2)n2c1CCC2`, for which the TGI in the test with RPMI-8226 leukemia, with MCF7 breast, with CAKI-1 renal, in the test with NCI-H226 lung, with DU-145 prostate and in the test on SF-539 CNS was over 100 µM each time. For the same molecule, the TGI with K-562 leukemia, in the test on SK-MEL-5 melanoma and with PC-3 prostate was over 100 µM in each case.
As to `C[C@H](CCC(=O)NCC(=O)O)[C@H]1CC[C@H]2[C@@H]3[C@H](O)C[C@@H]4C[C@H](O)CC[C@]4(C)[C@H]3CC[C@]12C`, the TGI with RPMI-8226 leukemia, with MCF7 breast, with CAKI-1 renal, in the test with NCI-H226 lung, in the test with DU-145 prostate and in the test with SF-539 CNS was over 100 µM in each case. Besides, the TGI with K-562 leukemia, in the test with SK-MEL-5 melanoma and in the test on PC-3 prostate was over 100 µM each time.
Turning to `CC/C(=C\c1ccc(OC)cc1)c1ccc(OC)cc1`, the TGI in the test with RPMI-8226 leukemia, with MCF7 breast, with CAKI-1 renal, in the test on NCI-H226 lung, with DU-145 prostate and with SF-539 CNS was over 100 µM throughout. Further, the results for the TGI in the test with K-562 leukemia, in the test on SK-MEL-5 melanoma and with PC-3 prostate were over 100 µM, 80.7 µM and over 100 µM, respectively.
On to `Cc1ccc(/C=C2/N=C(N/N=C\c3ccccc3)NC2=O)cc1`, for which the TGI in the test on RPMI-8226 leukemia was 48.3 µM; in the test on MCF7 breast, over 100 µM; in the test with CAKI-1 renal, over 100 µM; with NCI-H226 lung it was over 100 µM; with DU-145 prostate, over 100 µM; in the test with SF-539 CNS it was over 100 µM. The TGI in the test on K-562 leukemia, in the test with SK-MEL-5 melanoma and with PC-3 prostate was over 100 µM throughout.
Turning to `O=P(O)(O)CN1CCNCCN(CP(=O)(O)O)CC1`, the TGI with RPMI-8226 leukemia is over 100 µM; in the test with MCF7 breast it was over 100 µM; in the test with CAKI-1 renal it was over 100 µM; in the test on NCI-H226 lung, over 86.8 µM; with DU-145 prostate, over 100 µM; in the test with SF-539 CNS, over 100 µM. Further, the TGI was over 76.6 µM in the test on K-562 leukemia, 71.8 µM in the test on SK-MEL-5 melanoma and over 100 µM with PC-3 prostate.
Consider `CC[C@@]1(O)C(=O)OCc2c1cc1n(c2=O)Cc2c-1nc1ccccc1c2/C=N\NC(=O)C(N)Cc1c[nH]c2ccccc12` (stereo partly specified), for which the TGI in the test on RPMI-8226 leukemia was 17.3 µM; in the test with MCF7 breast it was over 55.7 µM; in the test on CAKI-1 renal, 2.52 µM; in the test with NCI-H226 lung, 11.9 µM; in the test on DU-145 prostate, over 100 µM; in the test on SF-539 CNS, 0.584 µM. In addition, the TGI was over 100 µM in the test on K-562 leukemia, 2.49 µM in the test on SK-MEL-5 melanoma and over 100 µM in the test with PC-3 prostate.
For `COC(=O)c1ccc(NCC2=C(Br)C(=O)C=CC2=O)cc1Cl`, the TGI in the test on RPMI-8226 leukemia was over 100 µM; with MCF7 breast, 30.9 µM; with CAKI-1 renal, 70.6 µM; in the test with NCI-H226 lung, over 100 µM; in the test with DU-145 prostate, 42.5 µM; in the test with SF-539 CNS it was 35.7 µM. The TGI with K-562 leukemia is over 100 µM; in the test with SK-MEL-5 melanoma, 41.1 µM; with PC-3 prostate, 43.8 µM.
Consider `CC(C)C(NC(=O)C(Cc1ccccc1)NC(=O)[C@H]1CCC[C@H]1NC(=O)C(Cc1ccc(OC(C)(C)C)cc1)NC(=O)OC(C)(C)C)C(N)=O` (stereo partly specified), for which the TGI in the test on RPMI-8226 leukemia was over 100 µM; with MCF7 breast it was 35.9 µM; in the test on CAKI-1 renal it was over 100 µM; in the test on NCI-H226 lung it was 37.8 µM; in the test on DU-145 prostate, over 100 µM; in the test with SF-539 CNS, 33.8 µM. In addition, the figures for the TGI in the test with K-562 leukemia, in the test on SK-MEL-5 melanoma and in the test on PC-3 prostate were 44.4 µM, 21.5 µM and 54 µM, respectively.
As to `CCOC(=O)C(C/C=C/CO)N(C)C(=O)OC(C)(C)C` (stereo unspecified), the TGI in the test on RPMI-8226 leukemia, in the test on MCF7 breast, in the test with CAKI-1 renal, in the test on NCI-H226 lung, in the test with DU-145 prostate and with SF-539 CNS was over 100 µM throughout. Besides, the TGI in the test with K-562 leukemia, in the test on SK-MEL-5 melanoma and in the test on PC-3 prostate was over 100 µM in each case.
For the molecule `CCOC(=O)C1=C(C)N(Cc2ccccc2)C2(O)C=CC(=O)C3=C(O)c4ccccc4C(=O)C312` (stereo unspecified), the TGI in the test with RPMI-8226 leukemia is 31.2 µM; in the test on MCF7 breast, 3.44 µM; in the test on CAKI-1 renal, 37.2 µM; in the test on NCI-H226 lung, 54.4 µM; in the test with DU-145 prostate, 38.3 µM; in the test on SF-539 CNS it was 32.6 µM. Further, the TGI was 61 µM in the test with K-562 leukemia, 22 µM with SK-MEL-5 melanoma and over 100 µM in the test with PC-3 prostate.
Consider `Cc1ccccc1NC(=O)Cc1csc(N=Nc2c(O)[nH]c3ccccc23)n1`, for which the TGI with RPMI-8226 leukemia was over 100 µM; with MCF7 breast it was over 100 µM; in the test on CAKI-1 renal, 37.6 µM; in the test with NCI-H226 lung, over 100 µM; with DU-145 prostate, over 100 µM; with SF-539 CNS it was 32.3 µM. Moreover, the figures for the TGI in the test on K-562 leukemia, with SK-MEL-5 melanoma and in the test with PC-3 prostate were over 100 µM, over 100 µM and 37.2 µM, respectively.
On to `CC1(C)CC(=O)C2=C(C1)OC1(CC2c2ccc(Cl)cc2)CC(c2ccc(Cl)cc2)C2=C(CC(C)(C)CC2=O)O1` (stereo unspecified), for which the TGI was 28.5 µM with RPMI-8226 leukemia; over 100 µM in the test on MCF7 breast; 52.3 µM with CAKI-1 renal; 42.1 µM in the test on NCI-H226 lung; 46.4 µM in the test on DU-145 prostate; over 51.3 µM with SF-539 CNS. Further, the TGI with K-562 leukemia was over 51.3 µM; in the test on SK-MEL-5 melanoma it was 31.4 µM; in the test with PC-3 prostate, over 65.9 µM.
As for `C=C(C)[C@@H]1CC[C@]2(CO)CC[C@]3(C)[C@H](CC[C@@H]4[C@@]5(C)CC[C@H](NCO)C(C)(C)[C@@H]5CC[C@]43C)[C@@H]12`, the GI50 in the test with RPMI-8226 leukemia was 0.934 µM; in the test with MCF7 breast, 0.794 µM; in the test on CAKI-1 renal, 0.882 µM; with NCI-H226 lung, 8.3 µM; in the test with DU-145 prostate, 0.878 µM; in the test with SF-539 CNS, 0.826 µM. Besides, the GI50 with K-562 leukemia is 0.974 µM; in the test on SK-MEL-5 melanoma, 0.87 µM; in the test on PC-3 prostate, 0.85 µM. Further, the TGI in the test on RPMI-8226 leukemia stood at 2.5 µM; in the test on MCF7 breast it was 1.61 µM; in the test with CAKI-1 renal, 1.59 µM; with NCI-H226 lung, 20.5 µM; with DU-145 prostate, 1.58 µM; with SF-539 CNS it was 1.52 µM. Also, the TGI with K-562 leukemia came out at 3.59 µM; with SK-MEL-5 melanoma it was 1.59 µM; with PC-3 prostate, 1.85 µM.
Consider `COCCN1C(=O)C2c3[nH]c4ccccc4c3C3CCC(C(C)(C)C)CC3C2C1=O` (stereo unspecified), for which the TGI with RPMI-8226 leukemia was found to be 39.5 µM; in the test with MCF7 breast it was 43.3 µM; with CAKI-1 renal, 37.6 µM; with NCI-H226 lung, 39 µM; in the test on DU-145 prostate, 37.1 µM; in the test on SF-539 CNS, 35.6 µM. Besides, the TGI in the test on K-562 leukemia was over 100 µM; with SK-MEL-5 melanoma, 30.9 µM; with PC-3 prostate it was 29.1 µM.
As to `CN(C)CCNC(=O)c1c(O)ccc2c1c1c(n2CCc2ccccc2)C(=O)c2ccccc2C1=O`, the TGI in the test with RPMI-8226 leukemia was 11.6 µM; with MCF7 breast it was 12.1 µM; in the test with CAKI-1 renal it was 19.2 µM; in the test on NCI-H226 lung, 35.2 µM; in the test on DU-145 prostate, 20.9 µM; in the test with SF-539 CNS, 11.1 µM. In addition, the TGI in the test on K-562 leukemia amounted to 6.07 µM; with SK-MEL-5 melanoma, 7.21 µM; in the test with PC-3 prostate, 29.1 µM.
Take `C=C1C(=O)OC2C3OC(C)(CCC(O)C3COC(C)=O)CC(OC(=O)/C(=C/C)COC(C)=O)C12` (stereo unspecified): the TGI with RPMI-8226 leukemia worked out at 0.339 µM; with MCF7 breast, 0.533 µM; with CAKI-1 renal, 0.39 µM; in the test with NCI-H226 lung, 8.4 µM; in the test on DU-145 prostate it was 2.04 µM; in the test on SF-539 CNS, 3.22 µM. In addition, the TGI worked out at 6.42 µM in the test on K-562 leukemia, 2.65 µM in the test on SK-MEL-5 melanoma and 4.49 µM with PC-3 prostate.
With `CCOC(=O)C(C)N1C(=O)c2ccccc2S1(=O)=O` (stereo unspecified), the TGI in the test with RPMI-8226 leukemia, with MCF7 breast, in the test with CAKI-1 renal, in the test with NCI-H226 lung, in the test with DLD-1 colon and with SF-539 CNS was over 100 µM throughout. The TGI in the test on K-562 leukemia, in the test with DMS 273 small cell lung and in the test on SK-MEL-5 melanoma was over 100 µM each time.
For `S=c1nc[nH]c2c1ncn2C1CCCO1` (stereo unspecified), the TGI in the test with RPMI-8226 leukemia, in the test on CAKI-1 renal, in the test on DLD-1 colon, with SF-539 CNS, in the test with K-562 leukemia and in the test with DMS 273 small cell lung was over 100 µM each time. Besides, the TGI in the test with SK-MEL-5 melanoma is over 100 µM.
As for `NN/C(=N\S(=O)(=O)c1ccc(S(=O)(=O)c2ccccc2)s1)Nc1ccc(Cl)cc1`, the TGI in the test on RPMI-8226 leukemia was over 100 µM; in the test with MCF7 breast, over 100 µM; in the test on CAKI-1 renal it was over 100 µM; with NCI-H226 lung, over 100 µM; in the test on DU-145 prostate, 76.5 µM; with SF-539 CNS, over 100 µM. In addition, the TGI in the test on K-562 leukemia is over 100 µM; in the test on SK-MEL-5 melanoma it was 46.2 µM; with PC-3 prostate it was over 100 µM.
Take `CN(C)CN(C)c1nc(N(C)C)nc(N(C)CN(C)C)n1`: the TGI is 67.2 µM in the test on RPMI-8226 leukemia; over 100 µM in the test on CAKI-1 renal; over 100 µM in the test on NCI-H226 lung; over 100 µM in the test with DLD-1 colon; over 100 µM in the test with SF-539 CNS; 67.3 µM in the test on K-562 leukemia. Moreover, the TGI in the test on DMS 273 small cell lung is 33.3 µM; in the test on SK-MEL-5 melanoma it was over 100 µM.

The values above are taken from PubChem BioAssay (NCI).
